Reference: patent US6902926B1, “Toxoplasma gondii apical membrane antigen-1” (priority 2000, dated 2005)

Test system: secretion of the 53-kDa fragment of TgAMA-1
Assay: Secretion assay: TgAMA-1 released from tachyzoites into culture supernatant, by western blot
Format: cell-based, Toxoplasma gondii
Conditions: for secretion of the 53-kDa fragment of TgAMA-1: 2-min treatment at 37° C.
Experimental: Tachyzoites (2F strain, constitutively expressing cytoplasmic β-galactosidase [generous gift of David Sibley]) were washed twice in DMEM+20 mM HEPES, pH 7.0 (4 min, 1000×g, 23° C.), and resuspended in 4 ml polystyrene round bottom tubes at a concentration of 2×10^8 tachyzoites/ml. The suspension was incubated for various times at 37° C. or treated for 15 min at 23° C. with either 1.0% (v/v) DMSO or 20 μM BAPTA-AM (1.0% [v/v] DMSO final), followed by 2 min at 37° C. with 200 nM A23187 (1.0% [v/v] DMSO final) or 1.0% ethanol. Cells were pelleted (4 min, 1000×g, 4° C.) and dissolved in SDS-PAGE sample buffer. Supernatants were recentrifuged (4 min, 1000×g, 4° C.) and dissolved in sample buffer. The samples were incubated for 10 min at 100° C. and analyzed by SDS-PAGE/western blotting. Gels to be probed with either Mab B3.90 or antipeptide antiserum UVT59 were run under non-reducing conditions; blots to be probed with Mab 6D10 were run under reducing conditions. The extent of parasite lysis was determined by measuring the levels of β-galactosidase in the supernatant, as previously described.

SMILES | secretion of the 53-kDa fragment of TgAMA-1 | effect of pretreatment on ethanol/A23187-enhanced secretion of the 53-kDa fragment (pretreating the parasites before ethanol or A23187)
CCO [ethanol] | dramatically enhanced | 
CNc1ccc2oc(C[C@H]3O[C@@]4(CC[C@H]3C)O[C@H]([C@H](C)C(=O)c3ccc[nH]3)[C@H](C)C[C@H]4C)nc2c1C(=O)O [A23187] | dramatically enhanced | 
CC(=O)OCOC(=O)CN(CC(=O)OCOC(C)=O)c1ccccc1OCCOc1ccccc1N(CC(=O)OCOC(C)=O)CC(=O)OCOC(C)=O [BAPTA-AM] |  | abrogated
